Results from ChEMBL document CHEMBL1201862, “PubChem BioAssay data set” (2004).
Calls of active or inactive are those of the source.

What was measured:
Melanocortin receptor 4 [1] = molecular target: T1, Melanocortin receptor 4 (Homo sapiens, UniProt P32245); assay type: functional, cell-based;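 also: Cell-based assay with luminescence read-out, confirmatory dose-response testing for agonist activity of biased ligands at MC4R; human U2OS cells with tagged receptor and beta-arrestin; potency of agonists that increase receptor coupling to beta-arrestin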
T1 sequence (P32245 whole entry): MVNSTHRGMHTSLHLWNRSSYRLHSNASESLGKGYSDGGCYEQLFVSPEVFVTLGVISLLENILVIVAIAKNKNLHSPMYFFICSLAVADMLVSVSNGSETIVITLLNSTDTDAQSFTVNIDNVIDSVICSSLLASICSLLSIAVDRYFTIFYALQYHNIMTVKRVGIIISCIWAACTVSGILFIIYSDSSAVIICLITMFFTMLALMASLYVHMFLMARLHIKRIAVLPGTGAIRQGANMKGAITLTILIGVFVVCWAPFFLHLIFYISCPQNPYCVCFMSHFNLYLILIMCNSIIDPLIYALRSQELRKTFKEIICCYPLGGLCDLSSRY

Melanocortin receptor 4 [2] = molecular target: T1, Melanocortin receptor 4; assay: MC4R antagonist potency on cAMP, dose response, cell-based, TR-FRET, biased antagonists (AID 602298); assay type: functional;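 also: antagonist potency against agonist-stimulated cAMP production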
[3] = nonselective inhibitors of cellular cAMP signaling, dose response, counter-screen for MC4R biased antagonist project, cell-based, TR-FRET cAMP detection (AID 602305); assay type: functional;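 also: U2OS cells stimulated with forskolin near its EC80 as the cAMP inducer; potency is for inhibition of forskolin-stimulated cAMP signaling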
[4] = CAL PDZ domain peptide-binding inhibitors, dose response, biochemical, fluorescence polarization, untagged CAL PDZ, cherry-pick, set 2 (AID 602254); assay type: functional
Insulin-degrading enzyme [5] = molecular target: T2, Insulin-degrading enzyme (Homo sapiens, UniProt P14735); assay: activators of recombinant IDE enzyme, dose response, counter-screen for IDE activator project, biochemical, fluorescence polarization (AID 588681)
T2 sequence (P14735 whole entry): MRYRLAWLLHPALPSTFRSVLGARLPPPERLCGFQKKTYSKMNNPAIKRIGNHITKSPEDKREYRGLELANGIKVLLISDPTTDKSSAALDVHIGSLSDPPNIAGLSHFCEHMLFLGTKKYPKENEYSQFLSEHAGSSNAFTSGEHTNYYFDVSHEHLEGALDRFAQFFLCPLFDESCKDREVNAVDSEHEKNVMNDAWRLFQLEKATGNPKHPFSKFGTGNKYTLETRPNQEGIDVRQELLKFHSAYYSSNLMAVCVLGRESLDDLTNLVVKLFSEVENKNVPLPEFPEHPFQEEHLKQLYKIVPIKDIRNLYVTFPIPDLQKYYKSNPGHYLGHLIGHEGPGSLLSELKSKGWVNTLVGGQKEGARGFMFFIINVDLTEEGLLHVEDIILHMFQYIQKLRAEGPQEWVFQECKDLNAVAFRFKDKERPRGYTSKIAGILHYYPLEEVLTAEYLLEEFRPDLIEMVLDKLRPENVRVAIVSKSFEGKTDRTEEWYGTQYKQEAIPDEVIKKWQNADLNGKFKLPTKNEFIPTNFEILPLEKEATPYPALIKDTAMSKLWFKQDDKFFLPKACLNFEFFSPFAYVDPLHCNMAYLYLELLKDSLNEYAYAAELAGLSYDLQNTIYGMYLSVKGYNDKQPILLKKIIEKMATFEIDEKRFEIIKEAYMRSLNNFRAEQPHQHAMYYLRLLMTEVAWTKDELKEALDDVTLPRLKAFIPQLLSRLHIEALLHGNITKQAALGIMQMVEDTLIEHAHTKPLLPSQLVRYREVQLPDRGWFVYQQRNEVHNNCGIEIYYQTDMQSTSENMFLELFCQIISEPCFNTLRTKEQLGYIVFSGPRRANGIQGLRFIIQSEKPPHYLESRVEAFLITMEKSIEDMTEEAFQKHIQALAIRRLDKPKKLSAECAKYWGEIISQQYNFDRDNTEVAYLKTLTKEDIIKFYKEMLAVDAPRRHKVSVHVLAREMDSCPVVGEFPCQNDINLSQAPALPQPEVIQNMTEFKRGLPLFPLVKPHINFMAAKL

[6] = molecular target: T3, Ubiquitin-conjugating enzyme E2 N (Homo sapiens, UniProt P61088); assay type: functional
T3 sequence (P61088 whole entry): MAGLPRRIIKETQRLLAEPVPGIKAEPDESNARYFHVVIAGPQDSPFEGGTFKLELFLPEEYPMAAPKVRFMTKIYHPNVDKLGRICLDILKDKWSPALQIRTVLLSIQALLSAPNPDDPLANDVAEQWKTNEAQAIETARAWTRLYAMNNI

Bcl-2-related protein A1 = molecular target: T4, Bcl-2-related protein A1 (Mus musculus, UniProt Q07440); assay type: functional;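 also: confirmatory dose–response counterscreen on Bfl-1, used to check hits from a UBC13 polyubiquitin inhibitor campaign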
T4 sequence (Q07440 whole entry): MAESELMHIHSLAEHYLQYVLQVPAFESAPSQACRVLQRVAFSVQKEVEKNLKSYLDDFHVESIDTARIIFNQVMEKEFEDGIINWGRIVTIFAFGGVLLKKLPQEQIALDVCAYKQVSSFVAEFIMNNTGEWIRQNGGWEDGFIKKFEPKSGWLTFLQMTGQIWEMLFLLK

[7] = molecular target: Intestinal-type alkaline phosphatase (Mus musculus, UniProt P24822); assay: PubChem AID 488785; assay type: functional
Chain of Intestinal-type alkaline phosphatase (Mus musculus, UniProt P24822) (P24822 whole entry): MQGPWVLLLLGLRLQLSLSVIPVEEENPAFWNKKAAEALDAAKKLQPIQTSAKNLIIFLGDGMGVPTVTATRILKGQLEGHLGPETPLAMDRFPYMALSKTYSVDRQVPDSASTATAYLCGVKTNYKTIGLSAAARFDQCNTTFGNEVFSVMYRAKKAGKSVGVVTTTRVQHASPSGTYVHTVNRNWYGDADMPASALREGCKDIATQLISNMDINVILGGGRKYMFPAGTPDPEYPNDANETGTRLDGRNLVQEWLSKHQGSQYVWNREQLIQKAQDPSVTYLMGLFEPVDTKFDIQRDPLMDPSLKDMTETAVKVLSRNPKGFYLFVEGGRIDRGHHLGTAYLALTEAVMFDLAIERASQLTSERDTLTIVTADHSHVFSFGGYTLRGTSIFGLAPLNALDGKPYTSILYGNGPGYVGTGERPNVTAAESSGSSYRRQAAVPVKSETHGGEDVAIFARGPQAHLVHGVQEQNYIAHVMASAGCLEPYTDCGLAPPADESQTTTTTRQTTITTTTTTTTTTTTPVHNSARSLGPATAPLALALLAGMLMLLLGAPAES

[8] = molecular target: T5, Alkaline phosphatase, tissue-nonspecific isozyme (Homo sapiens, UniProt P05186); assay: TNAP enzyme inhibition by screening hits, dose response, selectivity assay for mouse IAP inhibitor project, biochemical, human TNAP, uHTS hits (AID 488906); assay type: functional
T5 sequence (P05186 whole entry): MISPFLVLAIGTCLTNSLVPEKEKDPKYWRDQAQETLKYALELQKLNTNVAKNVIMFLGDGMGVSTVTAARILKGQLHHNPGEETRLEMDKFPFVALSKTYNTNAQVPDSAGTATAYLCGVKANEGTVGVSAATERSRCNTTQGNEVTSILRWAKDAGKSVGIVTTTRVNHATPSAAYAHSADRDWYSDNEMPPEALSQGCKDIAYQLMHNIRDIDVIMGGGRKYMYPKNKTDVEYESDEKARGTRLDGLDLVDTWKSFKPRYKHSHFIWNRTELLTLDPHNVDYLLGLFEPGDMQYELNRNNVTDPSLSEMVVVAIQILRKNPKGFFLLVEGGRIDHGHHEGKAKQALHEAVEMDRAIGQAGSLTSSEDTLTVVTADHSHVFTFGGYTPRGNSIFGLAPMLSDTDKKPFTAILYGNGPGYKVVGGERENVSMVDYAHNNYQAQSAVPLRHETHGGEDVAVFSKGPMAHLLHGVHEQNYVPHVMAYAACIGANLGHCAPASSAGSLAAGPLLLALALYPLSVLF

HEK293 [9] = assay: HEK cell cytotoxicity by LDH release, dose response, cytotoxicity control for IDE activator project, fluorescence, HEK cells (AID 588440); assay type: functional, cell-based; details: Homo sapiens;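 also: cytotoxicity by LDH release measuring loss of membrane integrity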
[10] = molecular target: T3, Ubiquitin-conjugating enzyme E2 N; assay type: functional; remark: listed apart in the source
Insulin-degrading enzyme [11] = molecular target: T2, Insulin-degrading enzyme; assay: activators of endogenous IDE in HEK cells, dose response, cell-based, fluorescence polarization (AID 588439); assay type: functional
HEK293 [12] = assay: optical interference in Abeta FP readout, dose response, artefact control for IDE activator project, biochemical, fluorescence polarization (AID 588442); assay type: functional, cell-based; details: Homo sapiens
[13] = molecular target: Intestinal-type alkaline phosphatase (Homo sapiens, UniProt P09923); assay: inhibition of human intestinal alkaline phosphatase – biochemical, dose response (AID 488876); assay type: functional
Chain of Intestinal-type alkaline phosphatase (Homo sapiens, UniProt P09923) (P09923 whole entry): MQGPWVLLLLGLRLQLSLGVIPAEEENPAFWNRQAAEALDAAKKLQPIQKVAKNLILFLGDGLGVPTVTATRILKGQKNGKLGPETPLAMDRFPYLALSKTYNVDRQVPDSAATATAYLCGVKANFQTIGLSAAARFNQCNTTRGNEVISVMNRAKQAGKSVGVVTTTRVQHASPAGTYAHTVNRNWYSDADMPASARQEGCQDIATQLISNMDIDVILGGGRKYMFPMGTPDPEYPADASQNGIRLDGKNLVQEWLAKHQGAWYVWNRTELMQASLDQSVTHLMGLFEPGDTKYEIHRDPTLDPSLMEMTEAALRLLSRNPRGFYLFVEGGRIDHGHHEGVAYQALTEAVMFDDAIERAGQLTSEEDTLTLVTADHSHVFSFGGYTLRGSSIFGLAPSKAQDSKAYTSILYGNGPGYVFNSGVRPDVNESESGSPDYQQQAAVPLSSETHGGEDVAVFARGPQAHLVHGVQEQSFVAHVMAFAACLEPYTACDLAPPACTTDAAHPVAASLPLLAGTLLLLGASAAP

Caspase-3 = molecular target: T6, Caspase-3 (Homo sapiens, UniProt P42574); assay: caspase-3 inhibitors as off-family protease, SAR follow-up, selectivity assay for SENP protease inhibitor project, biochemical, luminescence, set 2 (AID 588599); assay type: functional
T6 sequence (P42574 whole entry): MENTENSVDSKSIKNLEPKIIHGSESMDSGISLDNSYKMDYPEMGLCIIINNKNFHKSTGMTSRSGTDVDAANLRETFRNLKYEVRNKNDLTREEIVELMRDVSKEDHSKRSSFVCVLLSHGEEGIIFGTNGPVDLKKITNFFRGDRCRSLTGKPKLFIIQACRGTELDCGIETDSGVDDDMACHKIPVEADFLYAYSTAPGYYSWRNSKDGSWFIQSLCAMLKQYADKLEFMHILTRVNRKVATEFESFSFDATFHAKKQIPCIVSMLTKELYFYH

[14] = molecular target: T7, Sentrin-specific protease 8 (Homo sapiens, UniProt Q96LD8); assay: SENP8 protease inhibitors, SAR follow-up, biochemical, luminescence, set 2 (AID 588601); assay type: functional
T7 sequence (Q96LD8 whole entry): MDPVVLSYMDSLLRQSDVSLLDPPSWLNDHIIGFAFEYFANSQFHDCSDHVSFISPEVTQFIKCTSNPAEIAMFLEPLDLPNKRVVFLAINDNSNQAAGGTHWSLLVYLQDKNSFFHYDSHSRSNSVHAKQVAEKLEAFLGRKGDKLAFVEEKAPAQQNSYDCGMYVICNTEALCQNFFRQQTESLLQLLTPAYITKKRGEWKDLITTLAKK

[15] = molecular target: T8, Sentrin-specific protease 6 (Homo sapiens, UniProt Q9GZR1); assay: SENP6 protease inhibitors, SAR follow-up, biochemical, luminescence, set 2 (AID 588598); assay type: functional
T8 sequence (Q9GZR1 whole entry): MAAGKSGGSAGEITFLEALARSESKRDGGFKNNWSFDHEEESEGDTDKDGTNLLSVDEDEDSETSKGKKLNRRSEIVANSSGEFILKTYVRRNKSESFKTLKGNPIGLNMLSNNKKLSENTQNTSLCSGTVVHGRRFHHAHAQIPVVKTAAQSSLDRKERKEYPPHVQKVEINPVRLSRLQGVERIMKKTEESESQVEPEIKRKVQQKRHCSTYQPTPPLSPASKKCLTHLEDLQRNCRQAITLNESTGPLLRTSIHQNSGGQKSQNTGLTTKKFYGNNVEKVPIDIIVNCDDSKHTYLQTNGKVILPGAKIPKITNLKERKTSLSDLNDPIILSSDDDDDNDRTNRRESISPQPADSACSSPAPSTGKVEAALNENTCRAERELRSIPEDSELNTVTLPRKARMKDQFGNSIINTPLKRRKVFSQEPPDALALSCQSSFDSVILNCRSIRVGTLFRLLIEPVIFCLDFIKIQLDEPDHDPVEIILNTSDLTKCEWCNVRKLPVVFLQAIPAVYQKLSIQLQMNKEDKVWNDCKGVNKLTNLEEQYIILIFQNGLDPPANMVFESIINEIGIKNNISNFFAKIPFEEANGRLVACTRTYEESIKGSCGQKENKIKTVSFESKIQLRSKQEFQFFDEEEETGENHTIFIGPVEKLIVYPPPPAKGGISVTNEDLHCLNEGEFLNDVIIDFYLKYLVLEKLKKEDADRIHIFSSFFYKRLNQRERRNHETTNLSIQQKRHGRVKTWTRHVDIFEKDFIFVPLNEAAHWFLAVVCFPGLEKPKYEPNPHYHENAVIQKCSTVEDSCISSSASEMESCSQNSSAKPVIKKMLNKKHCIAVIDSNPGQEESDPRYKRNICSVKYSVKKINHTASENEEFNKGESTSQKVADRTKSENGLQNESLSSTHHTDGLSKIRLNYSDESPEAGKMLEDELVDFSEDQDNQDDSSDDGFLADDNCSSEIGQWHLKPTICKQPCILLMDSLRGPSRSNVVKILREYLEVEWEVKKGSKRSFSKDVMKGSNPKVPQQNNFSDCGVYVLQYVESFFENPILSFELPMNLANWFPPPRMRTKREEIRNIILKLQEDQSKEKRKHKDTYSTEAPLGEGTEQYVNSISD

[16] = molecular target: T9, Sentrin-specific protease 7 (Homo sapiens, UniProt Q9BQF6); assay: SENP7 protease inhibitors, SAR follow-up, biochemical, luminescence, set 2 (AID 588600); assay type: functional
T9 sequence (Q9BQF6 whole entry): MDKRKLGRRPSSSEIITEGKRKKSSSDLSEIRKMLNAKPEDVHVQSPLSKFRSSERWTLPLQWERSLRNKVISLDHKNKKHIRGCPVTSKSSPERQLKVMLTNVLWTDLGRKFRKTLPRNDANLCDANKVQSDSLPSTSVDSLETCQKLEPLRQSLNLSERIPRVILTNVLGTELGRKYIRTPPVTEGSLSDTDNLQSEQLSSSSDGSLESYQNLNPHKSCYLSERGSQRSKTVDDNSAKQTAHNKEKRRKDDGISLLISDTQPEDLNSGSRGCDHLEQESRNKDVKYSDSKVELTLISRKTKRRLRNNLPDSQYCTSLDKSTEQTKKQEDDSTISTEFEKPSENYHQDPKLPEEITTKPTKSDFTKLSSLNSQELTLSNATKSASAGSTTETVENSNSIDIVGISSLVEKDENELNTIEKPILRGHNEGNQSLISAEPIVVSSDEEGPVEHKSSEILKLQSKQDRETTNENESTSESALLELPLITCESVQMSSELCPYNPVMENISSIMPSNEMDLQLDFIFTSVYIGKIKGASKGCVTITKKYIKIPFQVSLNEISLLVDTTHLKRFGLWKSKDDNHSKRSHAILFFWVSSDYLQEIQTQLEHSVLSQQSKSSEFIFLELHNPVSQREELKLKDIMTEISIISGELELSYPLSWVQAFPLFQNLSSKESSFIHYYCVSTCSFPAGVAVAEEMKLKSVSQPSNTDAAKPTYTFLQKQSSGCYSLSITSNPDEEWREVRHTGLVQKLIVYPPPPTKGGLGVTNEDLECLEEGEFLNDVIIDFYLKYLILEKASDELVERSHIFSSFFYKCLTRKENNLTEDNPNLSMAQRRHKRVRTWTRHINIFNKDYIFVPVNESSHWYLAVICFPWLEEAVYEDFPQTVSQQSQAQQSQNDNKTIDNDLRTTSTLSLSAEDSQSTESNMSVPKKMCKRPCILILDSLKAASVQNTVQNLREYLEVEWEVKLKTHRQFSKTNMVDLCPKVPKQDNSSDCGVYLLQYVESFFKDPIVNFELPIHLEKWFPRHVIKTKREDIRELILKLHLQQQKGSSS

## Cc1ccc(C(=O)Nc2nc(C(N)Cc3ccc(C(F)(F)F)cc3)cs2)cc1 (configuration not stated)
Melanocortin receptor 4 [1]
  EC50: > 89.2 µM (inactive)

## Cc1ccc(-c2nn(-c3ccccc3)cc2NC(=O)CCl)cc1
Melanocortin receptor 4 [2]
  IC50: > 7.18 µM (active)
[3]
  IC50: > 64.6 µM (inactive)

## Cc1ccc(-c2nc(C)sc2CC(=O)OCC(=O)Nc2ccc(F)c(Cl)c2)cc1
[4]
  AC50: 110 µM (active)

## C#CCOCCOCCOCCNc1nc(N2CCN(C(=O)CCCCCCCCCCNC(=O)Cn3cc(CCCCCN)nn3)CC2)nc(N2CCN(C(=O)CCCCCCCCCCNC(=O)[C@@H](CCSC)n3cc(CCO)nn3)CC2)n1
Insulin-degrading enzyme [5]
  EC50: > 54.7 µM (inactive)
[6]
  IC50: 6.59 µM (active)
Bcl-2-related protein A1
  IC50: 18.5 µM (active)
[7]
  IC50: 6.92 µM (active)
[8]
  IC50: > 100 µM (inactive)
HEK293 [9]
  IC50: 14.5 µM (inactive)
[10]
  IC50: 4.6 µM (active)
Insulin-degrading enzyme [11]
  EC50: > 6.08 µM (active)
HEK293 [12]
  EC50: > 54.7 µM (inactive)
[13]
  IC50: > 100 µM (inactive)

## Cc1[nH]c2ccccc2c1C(=O)C(=O)NCc1cc(-c2cc3ccccc3o2)on1
Caspase-3
  IC50: > 99 µM (inactive)
[14]
  IC50: > 99 µM (inactive)
[15]
  IC50: > 99 µM (inactive)
[16]
  IC50: > 99 µM (inactive)

## CCN(CC)CCNC(=O)C[S+]([O-])Cc1nc(-c2ccccc2Cl)oc1C (configuration not stated)
Insulin-degrading enzyme [5]
  EC50: > 54.7 µM (inactive)
HEK293 [9]
  IC50: > 89.2 µM (inactive)
Insulin-degrading enzyme [11]
  EC50: > 54.7 µM (inactive)
HEK293 [12]
  EC50: > 55.9 µM (inactive)
